Holding throughout (test): Greenhouse postemergence herbicidal effect
Common to all, as to assay type: in vivo

Test [1] relates to common lambsquarters (CHEAL, Chenopodium album L.). As for the experimental part: (§1) Seeds of the desired test plant species were planted in a 90:10% v/v (volume/volume) mixture of PRO-MIX® BX (Premier Tech Horticulture, Quakertown, PA, USA) and PROFILE® GREENS GRADE™ (Profile Products LLC, Buffalo Grove, IL, USA) planting mixture, which typically has a pH of 5.2 to 6.2 and an organic matter content of at least 50 percent, in plastic pots with a surface area of 103.2 square centimeters (cm^2). […] The plants were grown for 7-36 days (d) in a greenhouse with an approximate 14-hour (h) photo-period which was maintained at about 23° C. during the day and 22° C. during the night. Nutrients and water were added on a regular basis and supplemental lighting was provided with overhead metal halide 1000-Watt lamps as necessary. The plants were employed for testing when they reached the second or third true leaf stage.
(§2) Emulsifiable concentrates of each of each pyridine carboxylate herbicide (Compound A or Compound B) were prepared at 100 grams acid equivalent per liter (g ae/L). The emulsifiable concentrates also included a safener, cloquintocet-mexyl, at 120 grams active ingredient per liter (g ai/L), unless otherwise noted below. An aliquot of each emulsifiable concentrate was placed in a 25 mL glass vial and diluted with an aqueous mixture of 1.25% (v/v) ACTIROB® B esterified rapeseed oil (Bayer Crop Science, Research Triangle Park, NC, USA) or MSO® Concentrate with LECI-TECH® methylated soybean oil (Loveland Products, Loveland, CO, USA) to obtain concentrated stock solutions at the highest application rate for each herbicide, based upon a 12 milliliter (mL) application volume at a rate of 187 liters per hectare (L/ha). The concentrated stock solutions were further diluted with an aqueous mixture of 1.25% v/v ACTIROB® B or MSO® Concentrate with LECI-TECH® to obtain stock solutions at reduced application rates for each herbicide. Spray solutions of the herbicide combinations (Compound A or Compound B plus ALS herbicide) were prepared by adding weighed amounts or aliquots of the ALS herbicides to the stock solutions of Compound A or Compound B to form 12-mL spray solutions in two- or three-way combinations.
(§3) The spray solutions were applied to the plant material with an overhead Mandel track sprayer equipped with 8002E nozzles calibrated to deliver 187 L/ha over an application area of 0.503 square meters (m^2) at a spray height of 18 inches (43 centimeters (cm)) above the average plant canopy. Control plants were sprayed in the same manner with the solvent blank. All pyridine carboxylate herbicide (component a) application rates are given as “g ae/ha” and all ALS inhibitor (component b) application rates are given as “g ai/ha.”
(§4) The treated plants and control plants were placed in a greenhouse as described above and watered by sub-irrigation to prevent wash-off of the test compounds. After 20-22 d, the condition of the test plants as compared with that of the control plants was determined visually and scored on a scale of 0 to 100 percent where 0 corresponds to no injury and 100 corresponds to complete kill.

Test [2] deals with kochia (KCHSC, Kochia scoparia). The method, then: as §1, §2, §3, §4
Test [3] concerns Russian thistle (SASKR, Salsola kali). The following applies: 16 g/ha. The method, then: (§5) The plants were grown for 7-36 days (d) in a greenhouse with an approximate 14-hour (h) photo-period which was maintained at about 23° C. during the day and 22° C. during the night. Nutrients and water were added on a regular basis and supplemental lighting was provided with overhead metal halide 1000-Watt lamps as necessary. The plants were employed for testing when they reached the second or third true leaf stage.
(§6) The emulsifiable concentrates also included a safener, cloquintocet-mexyl, at 120 grams active ingredient per liter (g ai/L), unless otherwise noted below.
(§7) Control plants were sprayed in the same manner with the solvent blank. All pyridine carboxylate herbicide (component a) application rates are given as “g ae/ha” and all ALS inhibitor (component b) application rates are given as “g ai/ha.”
as §4

For test [4], the system named is pigweed (AMARE, Amaranthus retroflexus). As for the experimental part: as §5, §6, §7, §4
For test [5], the system named is wild chamomile (MATCH, Matricaria chamomilla). As for the experimental part:
as §5, §6, §7, §4

Test [6] concerns Canadian thistle (CIRAR, Cirsium arvense). As for the experimental part: as §5, §6, §7, §4
For test [7], the system named is chickweed (STEME, Stellaria media). The method, then: as §5, §6, §7, §4
Test [8] concerns wild pansy (VIOTR, Viola tricolor). As for the experimental part: as §5, §6, §7, §4
Test [9] has as its system wild buckwheat (POLCO, Polygonum convolvulus). As for the experimental part:
as §5, §6, §7, §4

In test [10] the test system is broad-leaf dock (RUMOB, Rumex obtusifolius).
Description: (§8) Seeds of the desired test plant species were planted in a 90:10% v/v (volume/volume) mixture of PRO-MIX® BX (Premier Tech Horticulture, Quakertown, PA, USA) and PROFILE® GREENS GRADE™ (Profile Products LLC, Buffalo Grove, IL, USA) planting mixture, which typically has a pH of 5.2 to 6.2 and an organic matter content of at least 50 percent, in plastic pots with a surface area of 103.2 square centimeters (cm^2). In some aspects, to ensure good germination and healthy plants, a fungicide treatment and/or other chemical or physical treatment was applied. The plants were grown for 7-36 days (d) in a greenhouse with an approximate 14-hour (h) photo-period which was maintained at about 23° C. during the day and 22° C. during the night. Nutrients and water were added on a regular basis and supplemental lighting was provided with overhead metal halide 1000-Watt lamps as necessary. The plants were employed for testing when they reached the second or third true leaf stage.
as §2, §3, §4

Test [11] deals with large crabgrass (DIGSA, Digitaria sanguinalis). Particulars: DIGSA; Bensulfuron 16 g/ha.
Description: as §8, §2, §3, §4

The test system of test [12] is winter rape (BRSNW, Brassica napus). The following applies: Sulfosulfuron 140 g/ha. As for the experimental part:
as §5, §6, §7, §4

In test [13] the test system is wild mustard (SINAR, Sinapis arvensis). The following applies: Sulfosulfuron 140 g/ha. The method, then: as §5, §6, §7, §4
The subject of test [14] is velvetleaf (ABUTH, Abutilon theophrasti). Particulars: 8.75 g/ha.
Description: as §8, §2, §3, §4

Test [15] concerns common sunflower (HELAN, Helianthus annuus). The following applies: 8.75 g/ha.
Description: as §8, §2, §3, §4

The subject of test [16] is ivyleaf morningglory (IPOHE, Ipomoea hederacea). The following applies: 8.75 g/ha.
Description: as §8, §2, §3, §4

Test [17] relates to soybean (GLXMA, Glycine max). The following applies: 8.75 g/ha.
Description: as §8, §2, §3, §4

Consider `COc1cc(OC)nc(NC(=O)NS(=O)(=O)Cc2ccccc2C(=O)O)n1` [Bensulfuron, bensulfuron], for which the “% visual injury, Obs” value in test [1] (16 g/ha) is given as 10%; in [2] (16 g/ha) it was 5%; in [3] it was 0%; in [5] (16 g/ha), 38%. For the same compound, the “Obs % visual injury” value was determined as 10% in [1] (CHEAL, Bensulfuron 16 g/ha); 20% in test [2] (KCHSC, Bensulfuron 16 g/ha); 20% in test [4] (AMARE, Bensulfuron 16 g/ha); 20% in [6] (CIRAR, Bensulfuron 16 g/ha); 8% in [7] (STEME, Bensulfuron 16 g/ha); 8% in [8] (VIOTR, Bensulfuron 16 g/ha). In addition, the “Obs % visual injury” value in test [9] (POLCO, Bensulfuron 16 g/ha) is 80%; in test [10] (RUMOB, Bensulfuron 16 g/ha) it was 60%; in test [11], 0%.

On to `CCS(=O)(=O)c1nc2ccccn2c1S(=O)(=O)NC(=O)Nc1nc(OC)cc(OC)n1` [Sulfosulfuron, sulfosulfuron], for which the “% visual injury, Obs” value stood at 0% in test [1] (8.75 g/ha); 40% in [4] (8.75 g/ha); 53% in test [7] (8.75 g/ha); 55% in [8] (8.75 g/ha); 5% in test [9] (8.75 g/ha); 0% in test [10] (8.75 g/ha). Also, the “% visual injury, Obs” value in [14] turned out to be 30%; in [15], 100%; in [16], 78%; in test [17] it was 85%. Also, the “% visual injury” value was 43% in [1] (Sulfosulfuron 140 g/ha); 8% in [2] (Sulfosulfuron 140 g/ha); 88% in test [4] (Sulfosulfuron 140 g/ha); 73% in [5] (Sulfosulfuron 140 g/ha); 45% in [6] (Sulfosulfuron 140 g/ha); 98% in test [12]. In addition, the “% visual injury” value in [9] (Sulfosulfuron 140 g/ha) stood at 83%; in test [13] it was 99%. Also, the pest or weed control at 8.75 g/ha in [2] (Bassia scoparia, post-emergence, 8.75 g/ha, read-out: % visual injury, Obs) was 0%; in test [6] (Cirsium arvense, post-emergence, 8.75 g/ha, read-out: % visual injury, Obs), 5%.

(Values after patent publication US12285012B2, “Compositions comprising pyridine carboxylate herbicides with acetolactate synthase (ALS) inhibitor herbicides” (Corteva Agriscience LLC, priority 2018, dated 2025).)
